Test: PET imaging in rat (Planar Positron Imaging System)
Conditions: injected from tail vein, integrated PET image from 15 min to 30 min after administration (FIG. 4A, 4B)
Method: Hydroxylation of 2,6-dideoxy-6-iodo-D-glucose and 6-iodo-6-deoxy-D-glucose was performed in the glass filter reactor as shown in FIG. 1. Sep-Pak cartridges were purchased from Waters. The cyclotron is OSCAR-12 (NKK/Oxford). The target gas consisted of 1.5% O2 in ^15N2. PET scans were obtained on Planar Positron Imaging System (Hamamatsu Photonics K.K.).
A solution of 2,6-dideoxy-6-iodo-D-glucose (274 mg, 1.0 mmol), tributyltin hydride (807 μl, 3.0 mmol) and AIBN (4.0 mg, 0.025 mmol) in PhCF3 (20.0 ml)/C10F18 (4.5 ml)/2-BuOH (3.0 ml) was placed in the reactor, which was on the automated synthetic apparatus (FIG. 3). Proton bombardment (beam current 50 μA) on target gas started (N2/O2=98.5/1.5, target gas pressure=6 kg/cm^2). The beginning of the bombardment was defined as 0 sec for convenience. Cold gas (N2/O2=[…], 180 ml/min) was provided and heating with temperature-controlled air (80° C.) started simultaneously at 2 min 40 sec. At 4.0 min, the target gas was evacuated from the targeting area in the cyclotron system (20 ml/min). The target gas was mixed with cold N2/O2 gas (target gas/N2/O2=20/177/3, 200 ml/min), and the resulting gas was then supplied to the reaction vessel. […] At 5 min 20 sec, the bombardment stopped. However, evacuation of the target gas continued. Triphenylphosphine (262 mg, 1.0 mmol in 1.5 ml of PhCF3) was added at 6.0 min. […]

Question: Which “accumulation of tracer in integrated PET image” value does the source give for O=CCC(O)C(O)C(O)C[15OH] [[^15O]2-DG, ^15[O]2-deoxy-D-glucose] here?
Answer: Its value is “accumulation of [^15O]2-DG in heart, kidney and bladder”.
